Data on 20 compounds can be found in patent US10195196B2, “1,4-disubstituted pyridazine analogs there of and methods for treating SMN-deficiency-related conditions” (NOVARTIS AG, priority 2012, dated 2019).

As a reminder, the EC50 is the concentration that produces a half-maximal response.

The assay relates to SMN protein. The assay can be described thus: cellular SMN ELISA (SMN protein elevation). The format is cell-based. Particulars: ELISA condition 2: compound concentration 100 pM-10 uM, myoblast cell line from SMNdelta7 mouse model, 24 hours treatment; for SMN activity Fold: fold activation over DMSO control. The essentials:
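Readout is fold SMN elevation versus DMSO plus EC50, measured by anti-SMN capture ELISA with 450 nm absorbance. Lysates came from a myoblast line of the SMNdelta7 mouse model after 24 h compound exposure, with dose ranges of 20 nM–10 μM (condition 1) or 100 pM–10 μM (condition 2).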
(In general: In an ELISA, binding on a coated surface is turned into a signal by an enzyme label.)

On to `CN(c1ccc(-c2ccc(-c3ccn(C4CC4)c(=O)c3)cc2O)nn1)C1CC(C)(C)NC(C)(C)C1` [Example 41-14, 1-cyclopropyl-4-(3-hydroxy-4-(6-(methyl(2,2,6,6-tetramethylpiperidin-4-yl)amino)pyridazin-3-yl)phenyl)pyridin-2(1H)-one], for which the concentration giving a half-maximal response (EC50) turned out to be 0.084 µM and the “SMN activity Fold” value is 3.21 Fold.
For `CN(c1ccc(-c2ccc(C3=CCNCC3)cc2O)nn1)C1CC(C)(C)NC(C)(C)C1` [Example 41-15, 2-(6-(methyl(2,2,6,6-tetramethylpiperidin-4-yl)amino)pyridazin-3-yl)-5-(1,2,3,6-tetrahydropyridin-4-yl)phenol], in that order: 0.145 µM and 2.56 Fold.
Take `CN(c1ccc(-c2ccc(C3=CCCC3)cc2O)nn1)C1CC(C)(C)NC(C)(C)C1` [Example 41-16, 5-(cyclopent-1-en-1-yl)-2-(6-(methyl(2,2,6,6-tetramethylpiperidin-4-yl)amino)pyridazin-3-yl)phenol]: the EC50 stood at 0.062 µM and the “SMN activity Fold” value was 2.30 Fold.
For the compound `CN(c1ccc(-c2ccc(C3=CCOCC3)cc2O)nn1)C1CC(C)(C)NC(C)(C)C1` [Example 41-17, 5-(3,6-dihydro-2H-pyran-4-yl)-2-(6-(methyl(2,2,6,6-tetramethylpiperidin-4-yl)amino)pyridazin-3-yl)phenol], the midpoint of the response, the EC50, lay at 0.17 µM and the “SMN activity Fold” value was 2.88 Fold.
For `CN(c1ccc(-c2ccc(-c3ccn4cncc4c3)cc2O)nn1)C1CC(C)(C)NC(C)(C)C1` [Example 41-18, 5-(imidazo[1,5-a]pyridin-7-yl)-2-(6-(methyl(2,2,6,6-tetramethylpiperidin-4-yl)amino)pyridazin-3-yl)phenol], in that order: 0.017 µM and 2.44 Fold.
As to `CN(c1ccc(-c2ccc(-c3ccn4ccnc4c3)cc2O)nn1)C1CC(C)(C)NC(C)(C)C1` [Example 41-19, 5-(imidazo[1,2-a]pyridin-7-yl)-2-(6-(methyl(2,2,6,6-tetramethylpiperidin-4-yl)amino)pyridazin-3-yl)phenol], the EC50 is 0.017 µM and the “SMN activity Fold” value turned out to be 2.62 Fold.
In the case of `Cc1cc(-c2ccc(-c3ccc(N(C)C4CC(C)(C)NC(C)(C)C4)nn3)c(O)c2)ccn1` [Example 41-20, 2-(6-(methyl(2,2,6,6-tetramethylpiperidin-4-yl)amino)pyridazin-3-yl)-5-(2-methylpyridin-4-yl)phenol], the EC50 was 0.032 µM and the “SMN activity Fold” value worked out at 2.63 Fold.
For `CN(c1ccc(-c2ccc(-c3ncc[nH]3)cc2O)nn1)C1CC(C)(C)NC(C)(C)C1` [Example 42-1, 5-(1H-imidazol-2-yl)-2-(6-(methyl(2,2,6,6-tetramethylpiperidin-4-yl)amino)pyridazin-3-yl)phenol], in that order: 0.117 µM and 2.28 Fold.
On to `CN(c1ccc(-c2ccc(-c3c[nH]cn3)cc2O)nn1)C1CC(C)(C)NC(C)(C)C1` [Example 42-2, 5-(1H-imidazol-4-yl)-2-(6-(methyl(2,2,6,6-tetramethylpiperidin-4-yl)amino)pyridazin-3-yl)phenol], for which the EC50 stood at 0.026 µM and the “SMN activity Fold” value came to 2.06 Fold.
For `CN(c1ccc(-c2ccc(-c3cnc4cnccn34)cc2O)nn1)C1CC(C)(C)NC(C)(C)C1` [Example 42-3, 5-(imidazo[1,2-a]pyrazin-3-yl)-2-(6-(methyl(2,2,6,6-tetramethylpiperidin-4-yl)amino)pyridazin-3-yl)phenol], in that order: 0.099 µM and 2.92 Fold.
In the case of `CN(c1ccc(-c2ccc(-c3cnc4n3CCNC4)cc2O)nn1)C1CC(C)(C)NC(C)(C)C1` [Example 42-4, 2-(6-(methyl(2,2,6,6-tetramethylpiperidin-4-yl)amino)pyridazin-3-yl)-5-(5,6,7,8-tetrahydroimidazo[1,2-a]pyrazin-3-yl)phenol], a half-maximal response (EC50) required 0.853 µM and the “SMN activity Fold” value stood at 2.41 Fold.
Turning to `Cc1c[nH]c(-c2ccc(-c3ccc(N(C)C4CC(C)(C)NC(C)(C)C4)nn3)c(O)c2)n1` [Example 42-5, 2-(6-(methyl(2,2,6,6-tetramethylpiperidin-4-yl)amino)pyridazin-3-yl)-5-(4-methyl-1H-imidazol-2-yl)phenol], the midpoint of the response, the EC50, lay at 0.202 µM and the “SMN activity Fold” value was determined as 3.22 Fold.
The matching figures for `CN(c1ccc(-c2ccc(-c3cn(C)cn3)cc2O)nn1)C1CC(C)(C)NC(C)(C)C1` [Example 42-6, 2-(6-(methyl(2,2,6,6-tetramethylpiperidin-4-yl)amino)pyridazin-3-yl)-5-(1-methyl-1H-imidazol-4-yl)phenol]: 0.066 µM and 2.49 Fold.
`CN(c1ccc(-c2ccc(-c3cncn3C)cc2O)nn1)C1CC(C)(C)NC(C)(C)C1` [Example 42-7, 2-(6-(methyl(2,2,6,6-tetramethylpiperidin-4-yl)amino)pyridazin-3-yl)-5-(1-methyl-1H-imidazol-5-yl)phenol]: the EC50 is 0.055 µM and the “SMN activity Fold” value is listed as 2.51 Fold.
For `CN(c1ccc(-c2ccc(-c3nc([N+](=O)[O-])c[nH]3)cc2O)nn1)C1CC(C)(C)NC(C)(C)C1` [Example 42-8, 2-(6-(methyl(2,2,6,6-tetramethylpiperidin-4-yl)amino)pyridazin-3-yl)-5-(4-nitro-1H-imidazol-2-yl)phenol], the concentration for a half-maximal effect (EC50) is 0.756 µM and the “SMN activity Fold” value was 2.82 Fold.
Regarding `Cc1nc(-c2ccc(-c3ccc(N(C)C4CC(C)(C)NC(C)(C)C4)nn3)c(O)c2)c[nH]1` [Example 42-9, 2-(6-(methyl(2,2,6,6-tetramethylpiperidin-4-yl)amino)pyridazin-3-yl)-5-(2-methyl-1H-imidazol-4-yl)phenol], the EC50 is 0.015 µM and the “SMN activity Fold” value is reported as 2.85 Fold.
For `Cc1nc(-c2ccc(-c3ccc(N(C)C4CC(C)(C)NC(C)(C)C4)nn3)c(O)c2)cn1C` [Example 42-10, 5-(1,2-dimethyl-1H-imidazol-4-yl)-2-(6-(methyl(2,2,6,6-tetramethylpiperidin-4-yl)amino)pyridazin-3-yl)phenol], in that order: 0.057 µM and 3.10 Fold.
For `CN(c1ccc(-c2ccc(-n3cc(C(N)=O)cn3)cc2O)nn1)C1CC(C)(C)NC(C)(C)C1` [Example 42-11, 1-(3-hydroxy-4-(6-(methyl(2,2,6,6-tetramethylpiperidin-4-yl)amino)pyridazin-3-yl)phenyl)-1H-pyrazole-4-carboxamide], in that order: 0.239 µM and 3.37 Fold.
Consider `OCCN1C[C@@H]2CN(c3ccc(-c4ccc(-c5cn[nH]c5)cc4O)nn3)C[C@@H]2C1` [Example 43-1, 2-(6-((3aR,6aS)-5-(2-hydroxyethyl)hexahydropyrrolo[3,4-c]pyrrol-2(1H)-yl)pyridazin-3-yl)-5-(1H-pyrazol-4-yl)phenol], for which the half-maximal effective concentration (EC50) is 0.04 µM and the “SMN activity Fold” value is 3.04 Fold.
Take `CN1C[C@@H]2CN(c3ccc(-c4ccc(-c5cn[nH]c5)cc4O)nn3)C[C@@H]2C1` [Example 43-3, 2-(6-((3aR,6aS)-5-methylhexahydropyrrolo[3,4-c]pyrrol-2(1H)-yl)pyridazin-3-yl)-5-(1H-pyrazol-4-yl)phenol]: the midpoint of the response, the EC50, lay at 0.019 µM and the “SMN activity Fold” value is given as 2.39 Fold.
